This note sets out measurements from EP0093643A1 (priority 1982, dated 1983).

The subject of assay [1] is sécrétion gastrique. The assay is described as follows: Pentagastrin-stimulated gastric hypersecretion in dogs with a Heidenhain pouch. In kind it is in vivo, chien. As to conditions: Canis lupus familiaris, po, voie orale, dog, pentagastrin infusion, dose reducing hourly acid output by 50 %, doses expressed as base, read-out: DE50 (the source's name). The method, then: L'activité inhibitrice de la sécrétion gastrique du composé de l'exemple 1 a été comparée à celle du racémique correspondant à l'aide du test d'hypersécrétion gastrique stimulée par la pentagastrine chez le chien porteur d'une poche de Heidenhein.
Trois chiens "mongrels", porteurs d'une poche de Heidenhein, à jeun depuis 18 heures, reçoivent pendant 4 heures, par perfusion veineuse, […]/kg/heure de pentagastrine sous un volume de 30 ml/heure. La sécrétion de la poche est recueillie dans un flacon qui est changé toutes les 15 minutes. Une heure et demie après le début de la perfusion, le produit à étudier est administré par voie orale dans une gélule n° 000. La dose efficace 50 % (DE 50) eet la dose de produit qui diminue de 50 % le débit acide horaire enregistré pendant la 3ème ou 4ème heure de l'expérimentation par rapport au débit acide horaire enregistré lors de la deuxième heure do la perfusion.
Les résultats obtenus sont rassemblés dans le tableau ci-après, où les dosas sont exprimées en produit sous forme de base : […]

Assay [2] relates to récepteurs muscariniques de l'acétylcholine. In kind it is binding, rat. Particulars: compared with quinupramine; from IC50 of 3H-QNB displacement.

Consider `CN(C)S(=O)(=O)c1ccc2c(c1)N([C@@H]1CN3CCC1CC3)c1ccccc1S2` [Exemple 1, N,N-diméthyl [aza-1 bicyclo(2,2,2)octyl-3(S)] - 10 10 H-phénothiazinesulfonamide-2], for which the ED50 in assay [1] turned out to be 0.7 mg/kg. On to `CN(C)S(=O)(=O)c1ccc2c(c1)N(C1CN3CCC1CC3)c1ccccc1S2` (racemic) [racémique correspondant, reference compound], for which the ED50 in assay [1] was determined as 1 mg/kg.

`c1ccc2c(c1)CCc1ccccc1N2[C@@H]1CN2CCC1CC2` [Exemple 2, [aza-1 bicyclo(2,2,2)octyl-3 (S)]-5 dihydro-10,11 5H-dibenz (b,f) azépine]: the “activity relative to the corresponding racemate” value in assay [2] is listed as “deux fois plus actif”.
